Test results: patent publication US20220315554A1, “COMPOUNDS COMPRISING A […] LIGAND AND USE THEREOF” (priority 2019, published 2022)
Numbered stars: 1 amine (or outer) side, 2 acyl side, 3 side chain; on linkers, the order of the positions; unused ones are H or OH. Bridge positions count the residues as written; N and C are the ends. Square brackets hold non-standard residues; d marks the D form. Peptide text beside a SMILES is read from it. * marks the point of attachment. X19 = NC(=O)[C@H](CCCCNC(=O)CN1CCN(CC(=O)O)CCN(CC(=O)O)CCN(CC(=O)O)CC1)NC(=O)CCC(=O)NCCCOCCOCCNCCCN*; X22 = O=C1CN2CCN3CCN(CC(=O)N4CCN(Cc5cc(C[*:1])cc(C[*:2])c5)CC4)CCN(CC2)CC(=O)[O][Lu]([O]1)[O]C(=O)C3; X8 = O=C1CN2CCN3CCN(CC(=O)N4CCN(Cc5cc(C[*:1])cc(C[*:2])c5)CC4)CCN(CC2)CC(=O)[O][Ga]([O]1)[O]C(=O)C3; X13 = O=C(O)CN1CCN(CC(=O)O)CCN(CC(=O)NCCSCc2cc(CSCCN[*:2])cc(C[*:1])c2)CCN(CC(=O)O)CC1; NH(CH2)5NHDOTA = O=C(O)CN1CCN(CC(=O)O)CCN(CC(=O)NCCCCCN*)CCN(CC(=O)O)CC1; X2 = O=C(O)CN1CCN(CC(=O)O)CCN(CC(=O)NCCCOCCOCCOCCCN*)CCN(CC(=O)O)CC1; mXylylene = c1cc(C[*:1])cc(C[*:2])c1; Pentanesulfonyl = CCCCCS(=O)(=O)*; Suc = O=C(CCC(=O)[*:2])[*:1]; 3Amb = NCc1cccc(C(=O)O)c1; Nle = CCCC[C@H](N)C(=O)O; Hexanoyl = CCCCCC(=O)*

Assays:
Human recombinant FAP [1] = biological target: T1, Human recombinant FAP (Homo sapiens, UniProt Q12884); test: FRET-based FAP protease activity assay; format: biochemical; design: purchased R&D systems 3715-SE; details: pIC50 Category (Activity), recombinant human FAP, FRET substrate, 37° C.
T1 sequence (Q12884 1-760): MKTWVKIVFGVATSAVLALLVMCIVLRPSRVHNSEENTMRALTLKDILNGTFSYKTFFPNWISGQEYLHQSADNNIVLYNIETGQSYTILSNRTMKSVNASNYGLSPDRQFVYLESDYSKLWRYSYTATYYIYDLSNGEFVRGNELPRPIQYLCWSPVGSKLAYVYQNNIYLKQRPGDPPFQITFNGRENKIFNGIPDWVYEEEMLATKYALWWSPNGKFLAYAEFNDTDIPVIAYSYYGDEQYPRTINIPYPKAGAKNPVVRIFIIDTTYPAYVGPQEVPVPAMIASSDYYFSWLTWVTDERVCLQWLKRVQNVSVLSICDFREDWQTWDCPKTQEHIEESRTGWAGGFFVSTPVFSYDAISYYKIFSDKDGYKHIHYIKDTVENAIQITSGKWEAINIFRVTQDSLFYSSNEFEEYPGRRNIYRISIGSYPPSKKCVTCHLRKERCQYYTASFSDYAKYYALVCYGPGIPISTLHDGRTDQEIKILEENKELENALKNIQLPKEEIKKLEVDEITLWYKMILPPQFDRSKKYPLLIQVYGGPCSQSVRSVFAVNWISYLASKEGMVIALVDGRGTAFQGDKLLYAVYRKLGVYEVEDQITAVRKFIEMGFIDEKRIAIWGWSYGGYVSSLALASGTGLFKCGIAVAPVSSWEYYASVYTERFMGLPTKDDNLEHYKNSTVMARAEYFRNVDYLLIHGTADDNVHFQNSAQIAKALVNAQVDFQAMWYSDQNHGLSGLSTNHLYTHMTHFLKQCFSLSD

Human recombinant FAP [2] = biological target: T1, Human recombinant FAP; test: Surface plasmon resonance (Biacore) assay; format: binding
[3] = biological target: T2, FAP-expressing human WI-38 fibroblasts (Homo sapiens, UniProt Q12884); test: Competitive FACS binding assay; details: pIC50 Category (FACS), competition with 3 nM Cy5-labeled compound, WI-38 fibroblasts, 4° C., 1 hour
T2 construct: FAP-expressing human WI-38 fibroblasts (ECACC) were cultured in EMEM; host or cells: WI-38 human fibroblasts
T2 sequence (Q12884 1-760): T1 sequence (Q12884 1-760)
Description: Cells were analyzed in an Attune NxT flow cytometer. […]

Row | SMILES | IC50 (Human recombinant FAP [1]) | Kd (Human recombinant FAP [2]) | IC50 [3]
1 | CCCCCC(=O)N[C@H]1CSCc2cccc(c2)CSC[C@@H](C(=O)N[C@@H](CC(=O)O)C(=O)NCc2cccc(C(=O)N[C@@H](CCCNC(=N)N)C(N)=O)c2)NC(=O)[C@H](Cc2ccccc2)NC(=O)[C@H](CCC(=O)O)NC(=O)[C@H]([C@@H](C)O)NC(=O)[C@@H]2CCCN2C(=O)[C@@H]2CCCN2C1=O [3BP-3324, Hex-[Cys(3MeBn)-Pro-Pro-Thr-Glu-Phe-Cys]-Asp-Mamb-Arg-NH2] (Hexanoyl-CPPTEFCD[3Amb]R-NH2; linker 1-7 via mXylylene) | < 10 nM | < 10 nM | < 10 nM
2 | CCCCCC(=O)N[C@H]1CSCc2cccc(c2)CSC[C@@H](C(=O)N[C@@H](CC(=O)O)C(=O)NCCCNCCOCCOCCCNC(=O)CCC(=O)N[C@@H](CCCCNC(=O)CN2CCN(CC(=O)O)CCN(CC(=O)O)CCN(CC(=O)O)CC2)C(N)=O)NC(=O)[C@H](Cc2ccccc2)NC(=O)[C@H](CCC(N)=O)NC(=O)[C@H]([C@@H](C)O)NC(=O)[C@@H]2CCCN2C(=O)[C@@H]2CCCN2C1=O [3BP-3395, Hex-[Cys(3MeBn)-Pro-Pro-Thr-Gln-Phe-Cys]-Asp-Ttds-Lys(DOTA)-NH2] (Hexanoyl-CPPTQFCD-X19; linker 1-7 via mXylylene) | < 10 nM | < 10 nM | < 10 nM
3 | CCCCCC(=O)N[C@H]1CSCc2cccc(c2)CSC[C@@H](C(=O)N[C@@H](CC(=O)O)C(=O)NCCCNCCOCCOCCCNC(=O)CCC(=O)N[C@@H](CCCCNC(=O)CN2CCN(CC(=O)O)CCN(CC(=O)O)CCN(CC(=O)O)CC2)C(N)=O)NC(=O)[C@H](Cc2ccccc2)NC(=O)[C@H](CCC(=O)O)NC(=O)[C@H]([C@@H](C)O)NC(=O)[C@@H]2CCCN2C(=O)[C@@H]2CCCN2C1=O [3BP-3396, Hex-[Cys(3MeBn)-Pro-Pro-Thr-Glu-Phe-Cys]-Asp-Ttds-Lys(DOTA)-NH2] (Hexanoyl-CPPTEFCD-X19; linker 1-7 via mXylylene) | < 10 nM | < 10 nM | < 10 nM
4 | CCCC[C@H](NC(=O)CCC(=O)NCCCOCCOCCOCCCNC(=O)CN1CCN(CC(=O)O)CCN(CC(=O)O)CCN(CC(=O)O)CC1)C(=O)N[C@H]1CSCc2cccc(c2)CSC[C@@H](C(=O)N[C@@H](CC(=O)O)C(N)=O)NC(=O)[C@H](Cc2ccccc2)NC(=O)[C@H](CCC(N)=O)NC(=O)[C@H]([C@@H](C)O)NC(=O)[C@@H]2CCCN2C(=O)[C@@H]2CCCN2C1=O [3BP-3401, DOTA-Ttds-Nle-[Cys(3MeBn)-Pro-Pro-Thr-Gln-Phe-Cys]-Asp-NH2] ({X2-Suc}-[Nle]CPPTQFCD-NH2; linker 2-8 via mXylylene) | < 10 nM | < 10 nM | < 10 nM
5 | CCCCCC(=O)N[C@H]1CSCc2cccc(c2)CSC[C@@H](C(=O)N[C@@H](CC(=O)O)C(=O)NCCCCCNC(=O)CN2CCN(CC(=O)O)CCN(CC(=O)O)CCN(CC(=O)O)CC2)NC(=O)[C@H](Cc2ccccc2)NC(=O)[C@H](CCC(N)=O)NC(=O)[C@H]([C@@H](C)O)NC(=O)[C@@H]2CCCN2C(=O)[C@@H]2CCCN2C1=O [3BP-3403, Hex-[Cys(3MeBn)-Pro-Pro-Thr-Gln-Phe-Cys]-Asp-Ape(DOTA)] (Hexanoyl-CPPTQFCD-{NH(CH2)5NHDOTA}; linker 1-7 via mXylylene) | < 10 nM | < 10 nM | < 10 nM
6 | CCCCCC(=O)N[C@H]1CSCc2cccc(c2)CSC[C@@H](C(=O)N[C@@H](CCCCNC(=O)CCC(=O)NCCCOCCOCCOCCCNC(=O)CN2CCN(CC(=O)O)CCN(CC(=O)O)CCN(CC(=O)O)CC2)CC(=O)O)NC(=O)[C@H](Cc2ccccc2)NC(=O)[C@H](CCC(N)=O)NC(=O)[C@H]([C@@H](C)O)NC(=O)[C@@H]2CCCN2C(=O)[C@@H]2CCCN2C1=O [3BP-3489, Hex-[Cys(3MeBn)-Pro-Pro-Thr-Gln-Phe-Cys]-Bhk(DOTA-Ttds)-OH] | < 10 nM | < 10 nM | < 10 nM
7 | CCCCCS(=O)(=O)N[C@H]1CSCc2cccc(c2)CSC[C@@H](C(=O)N[C@@H](CC(=O)O)C(N)=O)NC(=O)[C@H](Cc2ccccc2)NC(=O)[C@H](CCC(N)=O)NC(=O)[C@H]([C@@H](C)O)NC(=O)[C@@H]2CCCN2C(=O)[C@@H]2CCCN2C1=O [3BP-3514, Pentyl-SO2-[Cys(3MeBn)-Pro-Pro-Thr-Gln-Phe-Cys]-Asp-NH2] (Pentanesulfonyl-CPPTQFCD-NH2; linker 1-7 via mXylylene) | < 10 nM | < 10 nM | < 10 nM
8 | CCCCCC(=O)N[C@H]1CSCc2cc(cc(CN3CCN(C(=O)CN4CCN5CCN6CCN(CC4)CC(=O)[O][Lu]([O]C(=O)C6)[O]C(=O)C5)CC3)c2)CSC[C@@H](C(=O)N[C@@H](CC(=O)O)C(N)=O)NC(=O)[C@H](Cc2ccccc2)NC(=O)[C@H](CCC(N)=O)NC(=O)[C@H]([C@@H](C)O)NC(=O)[C@@H]2CCCN2C(=O)[C@@H]2CCCN2C1=O [3BP-3591, Lutetium-Complex of Hex-[Cys(tMeBn(DOTA-PP))-Pro-Pro-Thr-Gln-Phe-Cys]-Asp-NH2] (Hexanoyl-CPPTQFCD-NH2; linker 1-7 via X22) | < 10 nM | < 10 nM | < 10 nM
9 | CCCCCC(=O)N[C@H]1CSCc2cc(cc(CN3CCN(C(=O)CN4CCN5CCN6CCN(CC4)CC(=O)[O][Ga]([O]C(=O)C6)[O]C(=O)C5)CC3)c2)CSC[C@@H](C(=O)N[C@@H](CC(=O)O)C(N)=O)NC(=O)[C@H](Cc2ccccc2)NC(=O)[C@H](CCC(N)=O)NC(=O)[C@H]([C@@H](C)O)NC(=O)[C@@H]2CCCN2C(=O)[C@@H]2CCCN2C1=O [3BP-3592, Gallium-Complex of Hex-[Cys(tMeBn(DOTA-PP))-Pro-Pro-Thr-Gln-Phe-Cys]-Asp-NH2] (Hexanoyl-CPPTQFCD-NH2; linker 1-7 via X8) | < 10 nM | < 10 nM | < 10 nM
10 | CCCCCC(=O)N[C@H]1CSCc2cc(CSCCNC(=O)CN3CCN(CC(=O)O)CCN(CC(=O)O)CCN(CC(=O)O)CC3)cc(c2)CSC[C@@H](C(=O)O)NC(=O)[C@H](Cc2cccc3ccccc23)NC(=O)[C@H](CCC(N)=O)NC(=O)[C@H]([C@@H](C)O)NC(=O)[C@@H]2CCCN2C(=O)[C@@H]2CCCN2C1 [3BP-3650, Hex-[Cys(tMeBn(DOTA-AET))-Pro-Pro-Thr-Gln-1Ni-Cys]-OH] | < 10 nM | < 10 nM | < 10 nM
11 | CCCCCC(=O)N[C@H]1CSCc2cc(CSCCNC(=O)CN3CCN(CC(=O)O)CCN(CC(=O)O)CCN(CC(=O)O)CC3)cc(c2)CSC[C@@H](C(=O)NCCC(=O)O)NC(=O)[C@H](Cc2ccccc2)NC(=O)[C@H](CCC(N)=O)NC(=O)[C@H]([C@@H](C)O)NC(=O)[C@@H]2CCCN2C(=O)[C@@H]2CCCN2C1=O [3BP-3651, Hex-[Cys(tMeBn(DOTA-AET))-Pro-Pro-Thr-Gln-Phe-Cys]-Bal-OH] | < 10 nM | < 10 nM | < 10 nM
12 | CCCCCC(=O)N[C@H]1CSCc2cc(CSCCNC(=O)CN3CCN(CC(=O)O)CCN(CC(=O)O)CCN(CC(=O)O)CC3)cc(c2)CSCCNC(=O)[C@H](Cc2ccccc2)NC(=O)[C@H](CCC(N)=O)NC(=O)[C@H]([C@@H](C)O)NC(=O)[C@@H]2CCCN2C(=O)[C@@H]2CCCN2C1=O [3BP-3654, Hex-[Cys(tMeBn(DOTA-AET))-Pro-Pro-Thr-Gln-Phe-AET]] (Hexanoyl-CPPTQF; linker 1-C via X13) | < 10 nM | < 10 nM | < 10 nM
13 | CCCCCC(=O)N[C@H]1CSCc2cc(CSCCNC(=O)CN3CCN(CC(=O)O)CCN(CC(=O)O)CCN(CC(=O)O)CC3)cc(c2)CSC[C@@H](C(=O)NCC(=O)O)NC(=O)[C@H](Cc2ccccc2)NC(=O)[C@H](CCC(N)=O)NC(=O)[C@H]([C@@H](C)O)NC(=O)[C@@H]2CCCN2C(=O)[C@@H]2CCCN2C1 [3BP-3656, Hex-[Cys(tMeBn(DOTA-AET))-Pro-Pro-Thr-Gln-Phe-Cys]-Gly-OH] | < 10 nM | < 10 nM | < 10 nM
14 | CCCCCC(=O)N[C@H]1CSCc2cc(CSCCNC(=O)CN3CCN(CC(=O)O)CCN(CC(=O)O)CCN(CC(=O)O)CC3)cc(c2)CSC[C@@H](C(=O)NCCCC(=O)O)NC(=O)[C@H](Cc2ccccc2)NC(=O)[C@H](CCC(N)=O)NC(=O)[C@H]([C@@H](C)O)NC(=O)[C@@H]2CCCN2C(=O)[C@@H]2CCCN2C1 [3BP-3657, Hex-[Cys(tMeBn(DOTA-AET))-Pro-Pro-Thr-Gln-Phe-Cys]-Gab-OH] | < 10 nM | < 10 nM | < 10 nM
